According to patent publication US20210369693A1, “METHODS AND PHARMACEUTICAL COMPOSITIONS FOR THE TREATMENT OF NON-ALCOHOLIC STEATOHEPATITIS” (Eiger Biopharmaceuticals, Inc., priority 2017, published 2021):
Values after ≈ are worked out from the molar mass of the structure shown.

Tests used:
animal model of NASH = experiment: Animal model of NASH (hypothesized); format: in vivo
Excerpt: Accordingly, in one aspect, methods of treating one or more symptoms of NAFLD and/or NASH, such as hepatocyte ballooning, steatosis, and lobular inflammation, are provided. […] Thus, in some embodiments, administration of pirfenidone as described herein is hypothesized to decrease ballooning and measurably lower plasma and/or liver CK-18 levels in as few as 3 to 12 weeks after treatment initiation. In some embodiments, it is hypothesized that continued daily administration of pirfenidone is efficacious in decreasing inflammation and fibrosis in NASH within 2 to 72 weeks after treatment initiation. In some embodiments, it is hypothesized that treatment with pirfenidone results in an improvement in one or more parameters such as improved ALT enzyme levels, decreased inflammation, decreased steatosis, reduced severity of NASH symptoms, reduced levels of NASH biomarkers such as CK-18, or the slowing, stopping, or reversing of liver fibrosis.

[1] = cited from earlier work
advanced NASH = settings: after a year of treatment; cited from earlier work

Cc1ccc(=O)n(-c2ccccc2)c1 [pirfenidone, 5-methyl-1-phenyl-2-1-(H)-pyridone]
hepatocyte ballooning (animal model of NASH; animal model of NASH): demonstrates efficacy in slowing and preventing hepatocyte ballooning | lobular inflammation (animal model of NASH; animal model of NASH): reduces | steatosis (animal model of NASH; animal model of NASH): reduces steatosis | plasma CK-18 levels (animal model of NASH; relative to control animals): decline significantly | relative solubility in solvents ([1]; methanol, ethyl alcohol, acetone, chloroform vs water and 1.0 N HCl): more soluble in methanol, ethyl alcohol, acetone and chloroform than in water and 1.0 N HCl

CC(C)C[C@H](NC(=O)[C@@H](O)[C@H](N)Cc1ccccc1)C(=O)O [Ubenimex, (2S)-2-[[(2S,3R)-3-amino-2-hydroxy-4-phenylbutanoyl]amino]-4-methylpentanoic acid]
solubility in water ([1]; water): 1.27 mg/mL (≈ 4.12 mM)

CCCCOCCOc1ccc(-c2ccc3c(c2)/C=C(/C(=O)Nc2ccc([S@@+]([O-])Cc4cncn4CCC)cc2)CCCN3CC(C)C)cc1 [cenicriviroc]
primary endpoint of improving inflammation and liver damage (advanced NASH): failed to meet its primary endpoint
